According to patent US10532052B2, “Combination of a 6-oxo-1,6-dihydro-pyridazine derivative having anti-cancer activity with an EGFR inhibitor” (Merck Patent GmbH, priority 2014, dated 2020):

How the values were obtained:
[1] = tested on: human DFCI081 NSCLC xenograft; experiment: human DFCI081 patient derived NSCLC xenograft (PDX) model; format: in vivo; conditions: for tumor response class / median tumor volume (TV) change: female NCr nude mice; for tumor response class: 100 mg/kg each agent orally daily up to 18 days; for median tumor volume (TV) change: s.c. DFCI081 tumors, 100 mg/kg orally daily up to 18 days
Method: Method: Female NCr nude mice (7 weeks old) where subcutaneously injected with human DFCI081 tumor cells and were divided into treatment groups (10 animals per group) after the tumors were established. […] Median tumor volume (TV) change in % were calculated and statistical analysis done with two way-RM ANOVA.

[2] = tested on: human NSCLC HCC827-GR-T790M xenograft; format: in vivo; conditions: female NCr nude mice, 100 mg/kg each agent orally daily, day 14
Experimental: Background: The human NSCLC HCC827-GR-T790M is a EGFR del 19 mutant and c-Met amplified lung xenograft model which exogenous expression of the EGFR T790M resistant mutation.
Method: Female NCr nude mice (7 weeks old) where subcutaneously injected with human HCC827-GR-T790M tumor cells and were divided into treatment groups (10 animals per group) after the tumors were established. […] Median tumor volume (TV) change in % were calculated at day 14, where the vehicle group was terminated and statistical analysis done with two way-RM ANOVA.

[3] = tested on: human DFCI081 NSCLC xenograft; conditions: background; due to the activated c-Met pathway; cited from earlier work

Row | Compound | tumor response class [1] | median tumor volume (TV) change [1] [%] | tumor response class [2] | median tumor volume change ([2]; s.c. HCC827-GR-T790M tumors) [%] | resistance of the model to EGFR inhibitor [3] | day at which complete tumor regression/response was observed in all mice ([1]; 100 mg/kg each agent orally daily) [days]
1 | C=CC(=O)Nc1cccc(Nc2nc(Nc3ccc(N4CCN(C(C)=O)CC4)cc3OC)ncc2C(F)(F)F)c1 [N-[3-[[2-[4-(4-acetylpiperazin-1-yl)-2-methoxy-anilino]-5-(trifluoromethyl)-pyrimidin-4-yl]amino]phenyl]prop-2-enamide] | tumor progressed | 700 | tumors progressed | 81 | – | –
2 | C#Cc1cccc(Nc2ncnc3cc(OCCOC)c(OCCOC)cc23)c1 [erlotinib] | – | – | – | – | resistant | –
3 | CN1CCC(COc2cnc(-c3cccc(Cn4nc(-c5cccc(C#N)c5)ccc4=O)c3)nc2)CC1.Cl.O [3-(1-{3-[5-(1-Methyl-piperidin-4-ylmethoxy)-pyrimidin-2-yl]-benzyl}-6-oxo-1,6-dihydro-pyridazin-3-yl)-benzonitrile hydrochloride hydrate] | tumor regression | −100 | – | – | – | 15
